The subject of assay [1] is 3′TAR and 5′TAR microRNA. Briefly: Poly-A RT-PCR of TAR microRNA in TZM-bl cells with or without TSA. The class given is cell-based, HIV-1. The settings on record: for 3′ TAR microRNA amount: non-TSA treated TZM-bl cells, Flavopiridol 50 nm, CR8 100 nm, CR8#13 100 nm. On the procedure: RNA was extracted 48 hrs-post drug treatment. 500 ng of RNA from the microRNA-enriched fraction was used to generate cDNA using the Quantimir kit (SBI) in order to poly adenylate small RNA species. RT reactions were performed followed by PCR in which a universal reverse primer was provided by the manufacturer. Specific microRNA forward primers are identical in sequence to the microRNA of interest. PCR products corresponding to the amplified microRNAs were separated in a 3.5% (w/v) agarose gel. The PCR products are at around 67 bp as compared with the Fermentas 1 kb DNA Plus Ladder. Increased levels of 3′TAR microRNA were produced post CR8#13 treatment.
For poly-A RT-PCR detection of microRNAs, 500 ng of RNA from the microRNA-enriched fraction was used to generate cDNA using the Quantimir kit (SBI) according to the manufacturer's protocol. Briefly, small RNA species are poly-adenylated and then reverse transcription reactions are performed with a company-provided RT primer. For PCR, a universal reverse primer is provided by the manufacturer. Specific microRNA forward primers are identical in sequence to the microRNA of interest. PCR products corresponding to the amplified microRNAs were separated in a 3.5% (w/v) agarose gel and quantified using the Kodak 1D software.
To determine whether the cdk inhibitors Flavopiridol, CR8, and CR8#13 increased levels of TAR microRNA in the TSA-treated and control TZM-bl cells total RNA was extracted from both TSA treated and control cells treated with Flavopiridol, CR8, and CR8#13 and processed for RT-PCR detection of microRNAs, specifically, for the presence of 3′TAR and 5′TAR molecules.

In assay [2] the test system is OM10.1 cells (HIV-1 infected). Briefly: Cell viability by trypan blue exclusion, 48 hours. The class given is cell-based. How it is done: (§1) In brief, the inhibition studies were carried out as follows. HIV-1 infected cells ACH2, J1.1, OM10.1, U1 and uninfected CEM, Jurkat T-cells, and U937 were cultured in media. The appropriate inhibitor was added at a concentration of 10 μM. Cells were treated for 48 hours and cell viability was determined using trypan blue exclusion method. Results of such a screen for 19 inhibitors is shown in Table 1 where percent dead cells are indicated each drug tested.
(§2) Again HIV-1 infected and uninfected cells were treated with eighteen Formula I compounds at a drug concentration of 50 nm. Forty-eight hours after treatment, cytotoxicity was determined by trypan blue dye exclusion. Percent inhibition was calculated after obtaining the cell density for each well of the tissue culture plate at the end of 48 hrs.

Assay [3] deals with U1 cells (HIV-1 infected). Briefly: Cell viability by trypan blue exclusion, 48 hours. The class given is cell-based. How it is done:
as §1, §2

Assay [4] has as its system J1.1 cells (HIV-1 infected). Briefly: Cell viability by trypan blue exclusion, 48 hours. In kind it is cell-based. How it is done:
as §1, §2

In assay [5] the test system is HIV-1 (pNL4.3) in Jurkat T-cells. Briefly: Reverse transcriptase assay of supernatants, pNL4.3 electroporated cells. The settings on record: Flavopiridol 200 nm, CR8 100 nm, CR8#13 50 nm, 48 hours. The class given is cell-based. On the procedure:
(§3) Jurkat T-cell and promonocytic U937 cells were electroporated with 5 μg pNL4.3 followed the next day by drug treatment of Flavopiridol (200 nm), CR8 (100 nm) or CR8#13 (50 nm). Cell supernatants were collected at 48 hours post drug treatment. Viral supernatants (10 μl) were incubated in a 96-well plate with reverse transcriptase (RT) reaction mixture overnight at 37° C., and 10 μl of the reaction mix was spotted on a DEAE Filtermat paper, washed with 5% (w/v) Na2HPO4 followed by water wash, and then dried completely. RT activity was measured in a Betaplate counter.
(§4) For electroporations, Jurkat and U937 cells were resuspended at 3 million cells in 250 μl of RPMI. Five microgram of pNL4-3 was then added to the cell suspension. Cells were pulsed a single time at 210V, 800 μF, and low resistance. Electroporated cells were immediately transferred to RPMI-1640 with L-glutamine and Penicillin/Streptomycin with 10% (v/v) FBS and plated in 6 well plates. Twenty four hours-post electroporation, cells were treated with drugs for additional 48 hrs and harvested for RT analysis. RT assays were performed as described in ((Guendel et al. 2009; Easley et al. 2010).
(§5) The present inventors examined whether Formula I, or Formula II compounds were effective inhibiting viral transcription in cell lines infected with an HIV-1 construct. Thus, Jurkat T-cells and promonocytic U937 cells were transfected with pNL4.3 and then treated with Flavopiridol, CR8 and CR8#13. Similar to monocytes, the Dicer levels are low to undetectable in promonocytic cells (FIG. 6) and was detectable only when these cells had differentiated into macrophages with PMA treatment.
(§6) Following drug treatment cell supernatants were collected and processed for exogenous reverse transcriptase (RT) levels.

The subject of assay [6] is HIV-1 (pNL4.3) in promonocytic U937 cells. Described as above. The class given is cell-based. The settings on record: Flavopiridol 200 nm, CR8 100 nm, CR8#13 50 nm, 48 hours. On the procedure: as §3, §4, §5, §6
Assay [7] relates to HIV-1 infected and uninfected cells. Briefly: Classification of inhibitors by effect on viability of infected versus uninfected cells. The settings on record: high. In kind it is cell-based. The source says: The inhibitors were classified into three categories: high, moderate or poor, according to their effect on cellular viability in both HIV-1 infected and uninfected cells. Among the compounds tested in this study, CR8, a purine analog bearing a 2-pyridyl group para to the phenyl ring position 6 of the purine was the most promising drug candidate that killed HIV-1 infected cells, while having little or no effect on the death of uninfected cells.

`CC[C@@H](CO)Nc1nc(NCc2ccc(-c3ccccn3)cc2)c2ncn(C(C)C)c2n1` [CR8]: the “3′ and 5′ TAR microRNA amount” value in assay [1] (TZM-bl cells treated with TSA for 7 days, then drug) is “higher amounts of both 3′ and 5′ TAR microRNA”. The “3′ TAR microRNA amount” value in assay [1] was “significantly increased amount of the 3′ TAR microRNA”. The inhibition at 10 µM in assay [2] (Human immunodeficiency virus 1, 48 h, read-out: % Inhibition (percent dead cells) OM10.1) amounted to 75%; in assay [3] (Human immunodeficiency virus 1, 48 h, read-out: % Inhibition (percent dead cells) U1) it was 90%; in assay [4] (Human immunodeficiency virus 1, 48 h, read-out: % Inhibition (percent dead cells) J1.1), 75%. Besides, the “RT levels in supernatant” value in assay [5] is reported as “effective at decreasing RT levels”; in assay [6] it was “not U937 monocytic cells”. Further, the Selectivity entry in assay [7] (10 μM, moderate or poor by effect on viability of infected and uninfected cells) is “High”.

Take `CC(C)c1cnn2c(NCc3ccc(-c4ccccn4)cc3)nc(NC[C@H](O)CO)nc12.O=C(O)/C=C/C(=O)O` [BJFP1154]: the “3′ TAR microRNA amount” value in assay [1] was “significantly increased amount of the 3′ TAR microRNA”. In assay [2] (50 nM, 48 hrs, HIV-1 infected), the “Inhibition Percentage OM10.1” value is listed as “− (1-5%)”. The “Inhibition Percentage U1” value in assay [3] (50 nM, 48 hrs, HIV-1 infected) is recorded as “− (1-5%)”. The “Inhibition Percentage J1.1” value in assay [4] (50 nM, 48 hrs, HIV-1 infected) was “− (1-5%)”. The results for the “RT levels in supernatant” value in assay [5] and in assay [6] were “effective at decreasing RT levels” and “not U937 monocytic cells”, respectively. In addition, the Selectivity result in assay [7] (50 nM, moderate or poor) was “Poor”.

The values are drawn from patent US20120149708A1, “MODULATORS OF VIRAL TRANSCRIPTION, AND METHODS AND COMPOSITIONS THEREWITH” (George Mason University, priority 2010, published 2012).
